Results published in ChEMBL document CHEMBL1122271, “Folate analogues. 22. Synthesis and biological evaluation of two analogues of dihydrofolic acid possessing a 7,8-dihydro-8-oxapterin ring system” (J Med Chem, 1983).
Values after ≈ are worked out from the molar mass of the structure shown.

Columns and labels:
Format in all cases: functional, organism-based
Lacticaseibacillus casei = test: Compound was measured for the growth inhibition of Lactobacillus casei up to concentration 4 ug/mL; NA means inactive
Enterococcus faecium [1] = test: Compound was measured for the growth inhibition of Streptococcus faecium; conditions: read-out: I50
Enterococcus faecium [2] = test: Compound was measured for the growth inhibition of S. faecium; NA means inactive

**Q.** Which I50 (Lacticaseibacillus casei) does the source give for `NC1=NC(=O)C2N=C(Cc3ccc(C(=O)NC(CCC(=O)O)C(=O)O)cc3)COC2N1` (centres undefined) here?
**A.** The I50 was “Not Active”.

**Q.** What about the IC50 (Enterococcus faecium [1]) of the same molecule?
**A.** Its IC50 is 1.4 µg/mL (≈ 3.25 µM).

**Q.** What does the source list for `NC1=NC(=O)C2N=C(c3ccc(C(=O)NC(CCC(=O)O)C(=O)O)cc3)COC2N1` (centres undefined)?
**A.** I50 (Lacticaseibacillus casei): Not Active; I50 (Enterococcus faecium [2]): Not Active
